# Publication PMC8297715 (ACS chemical biology, 2020)
# pIC50: −log10 of the molar value.
# Tests used:
# [1] = test system: HEK293T Tau RD P301S FRET biosensor (tau biosensor); assay: EV-mediated transfer; format: cell-based; settings: 20 μM
# [2] = target: T1, human nSMase2 (Homo sapiens, UniProt Q9NY59); assay: Amplex Red neutral sphingomyelinase enzyme activity assay; format: biochemical
# T1 sequence (Q9NY59 1-655): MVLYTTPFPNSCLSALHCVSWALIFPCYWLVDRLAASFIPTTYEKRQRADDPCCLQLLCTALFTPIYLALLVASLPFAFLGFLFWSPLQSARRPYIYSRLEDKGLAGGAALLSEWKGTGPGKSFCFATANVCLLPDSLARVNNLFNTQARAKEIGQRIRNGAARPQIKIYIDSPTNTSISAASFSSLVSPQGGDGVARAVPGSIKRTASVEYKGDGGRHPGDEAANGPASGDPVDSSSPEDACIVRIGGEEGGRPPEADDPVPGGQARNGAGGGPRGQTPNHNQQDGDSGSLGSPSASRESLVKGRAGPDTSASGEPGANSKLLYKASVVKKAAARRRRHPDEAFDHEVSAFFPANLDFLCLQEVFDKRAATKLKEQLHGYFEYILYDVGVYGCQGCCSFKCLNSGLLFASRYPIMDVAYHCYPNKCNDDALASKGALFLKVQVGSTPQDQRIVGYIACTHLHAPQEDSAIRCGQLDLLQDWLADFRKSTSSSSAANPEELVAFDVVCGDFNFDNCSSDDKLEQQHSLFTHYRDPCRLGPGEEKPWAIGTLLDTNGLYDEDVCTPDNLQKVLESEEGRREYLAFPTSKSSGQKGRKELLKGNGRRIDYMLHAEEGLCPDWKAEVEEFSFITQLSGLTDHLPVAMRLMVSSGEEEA
# [3] = target: T2, human AChE (Homo sapiens, UniProt P22303); assay: Amplex Red acetylcholinesterase; format: biochemical; settings: read-out: AChE inhibition IC50; dose-response; human AChE (Sigma)
# T2 sequence (P22303 32-614): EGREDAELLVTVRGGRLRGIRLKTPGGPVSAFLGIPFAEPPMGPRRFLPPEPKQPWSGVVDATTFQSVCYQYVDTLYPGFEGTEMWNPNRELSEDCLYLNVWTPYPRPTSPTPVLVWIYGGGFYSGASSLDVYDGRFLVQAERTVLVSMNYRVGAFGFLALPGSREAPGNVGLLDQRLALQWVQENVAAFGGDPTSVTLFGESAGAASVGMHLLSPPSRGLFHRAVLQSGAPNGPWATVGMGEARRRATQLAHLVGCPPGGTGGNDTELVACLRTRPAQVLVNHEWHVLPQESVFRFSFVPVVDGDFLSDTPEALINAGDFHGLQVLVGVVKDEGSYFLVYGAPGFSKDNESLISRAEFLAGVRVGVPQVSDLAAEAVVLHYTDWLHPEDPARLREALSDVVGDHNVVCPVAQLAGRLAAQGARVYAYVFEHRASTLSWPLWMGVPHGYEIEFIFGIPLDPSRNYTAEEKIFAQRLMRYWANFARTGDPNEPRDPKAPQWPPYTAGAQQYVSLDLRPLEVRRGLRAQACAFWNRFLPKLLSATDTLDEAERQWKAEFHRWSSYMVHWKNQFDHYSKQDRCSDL
# [4] = test system: HEK293T Tau RD P301S FRET biosensor (tau biosensor); settings: previously published; cited from earlier work
# [5] = target: T2, human AChE; settings: cited from earlier work
compound,measurement,setting,value
CCN(C)C(=O)Oc1cccc([C@H](C)N(C)C)c1 [rivastigmine],"EV-mediated tau seed transfer, EMT assay",[1],partially suppress
same,nSMase2 activity,[2],no nSMase2 activity
"CN1c2ccc(OC(=O)Nc3ccccc3)cc2[C@]2(C)CCO[C@H]12 [compound 1, (−)-phensvenine]",pIC50,[3],6.30
O=c1[nH]c(=S)[nH]c(-c2ccccc2)c1Cc1c(O)ccc2ccccc12 [cambinol],tau seed transfer in the EMT assay,[4],shows inhibition of tau seed transfer
same,AChE activity,[5]; previously published,no AChE activity
CN1CC[C@@]2(C)c3cc(OC(=O)Nc4ccccc4)ccc3N(C)[C@@H]12 [phenserine],pIC50,[2],< 4.30
CN1CC[C@]2(C)c3cc(OC(=O)Nc4ccccc4)ccc3N(C)[C@H]12 [Posiphen],AChE inhibitor activity,[5]; reported,weak AChE inhibitor
same,pIC50,[2],< 4.30
